From US6737383B1, “Herbicidal oxadiazolidines” (priority 1999, dated 2004)

Assays:
purple nutsedge = test: Test C postemergence purple nutsedge; format: in vivo, Cyperus rotundus; conditions: 0 to 100 scale, 0 no effect, 100 complete control
Method in brief: (§1)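 In this greenhouse assay, treated and untreated plants were kept for approximately 14 to 21 days following postemergence application, then rated by eye on a scale from 0 (no effect) to 100 (complete control).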

wild mustard = test: Test E wild mustard; format: in vivo, Sinapis arvensis; conditions: Preemergence
wild poinsettia = test: Test C postemergence wild poinsettia; format: in vivo, Euphorbia heterophylla; conditions: 0 to 100 scale, 0 no effect, 100 complete control
Method in brief: as §1

redroot pigweed = test: Test E redroot pigweed; format: in vivo, Amaranthus retroflexus; conditions: Postemergence; for Plant response rating, Redroot pigweed: 0 to 100 scale
Method in brief: (§2)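 Postemergence: spray at 1–4 leaf stage, soil 60:40 sandy loam:potting mix; solvent + surfactant formulation; greenhouse 21–28 d; visual injury vs untreated controls.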

kochia [1] = test: Test E kochia; format: in vivo, Kochia scoparia; conditions: Postemergence; for Plant response rating, Kochia: 0 to 100 scale
Method in brief: as §2

deadnettle = test: Test E deadnettle; format: in vivo, Lamium amplexicaule; conditions: Preemergence
jointed goatgrass = test: Test E jointed goatgrass; format: in vivo, Aegilops cylindrica; conditions: Postemergence; for Plant response rating, Jointed goatgra: 0 to 100 scale
Method in brief: as §2

kochia [2] = test: Test E kochia; format: in vivo, Kochia scoparia; conditions: Preemergence
Russian thistle = test: Test E Russian thistle; format: in vivo, Salsola kali; conditions: Preemergence
field violet = test: Test E field violet; format: in vivo, Viola arvensis; conditions: Preemergence
spring wheat = test: Test E spring wheat; format: in vivo, Triticum aestivum; conditions: Postemergence; for Plant response rating, Spring Wheat: 0 to 100 scale
Method in brief: as §2

field bindweed = test: Test C postemergence field bindweed; format: in vivo, Convolvulus arvensis; conditions: 0 to 100 scale, 0 no effect, 100 complete control
Method in brief: as §1

large crabgrass = test: Test C postemergence large crabgrass; format: in vivo, Digitaria sanguinalis; conditions: 0 to 100 scale, 0 no effect, 100 complete control
Method in brief: as §1

cocklebur = test: Test C postemergence cocklebur; format: in vivo, Xanthium strumarium; conditions: 0 to 100 scale, 0 no effect, 100 complete control
Method in brief: as §1

rape = test: Test E rape; format: in vivo, Brassica napus; conditions: Preemergence
chickweed = test: Test E chickweed; format: in vivo, Stellaria media; conditions: Postemergence; for Plant response rating, Chickweed: 0 to 100 scale
Method in brief: as §2

littleseed canarygrass = test: Test E littleseed canarygrass; format: in vivo, Phalaris minor; conditions: Preemergence
[3] = Rate 125 g/ha, 0 to 100 scale (0 no effect, 100 complete control)
[4] = Rate 500 g/ha, 0 to 100 scale where 0 is no effect and 100 is complete control
[5] = Rate 500 g/ha, 0 no effect, 100 complete control
[6] = Rate 250 g/ha, 0 to 100 scale where 0 is no effect and 100 is complete control

## CC(C)N(C(=O)n1oc(=O)n(C(C)C)c1=O)c1ccc(F)cc1 [Compound 131]
Purple nutsedge; Rate 140 g/ha
  Plant response rating, Purple nutsedge: 0
Purple nutsedge; Rate 280 g/ha
  Plant response rating, Purple nutsedge: 0
Purple nutsedge; Rate 560 g/ha
  Plant response rating, Purple nutsedge: 0
Purple nutsedge; Rate 1120 g/ha
  Plant response rating, Purple nutsedge: 80
Wild mustard; [3]
  Plant response rating, Wild mustard: 60
Wild mustard; Rate 250 g/ha
  Wild mustard plant response rating (0 to 100 scale): 100
Wild mustard; [4]
  Plant response rating, Wild mustard: 100
Wild poinsettia; Rate 140 g/ha
  Plant response rating Wild poinsettia: 0
Wild poinsettia; Rate 280 g/ha
  Plant response rating Wild poinsettia: 10
Wild poinsettia; Rate 560 g/ha
  Plant response rating Wild poinsettia: 30
Wild poinsettia; Rate 1120 g/ha
  Plant response rating Wild poinsettia: 80
Redroot pigweed; Rate 62 g/ha
  Plant response rating, Redroot pigweed: 5
Redroot pigweed; Rate 125 g/ha
  Plant response rating, Redroot pigweed: 0
Redroot pigweed; [5]
  Plant response rating, Redroot pigweed: 0
Redroot pigweed; [6]
  Redroot pigweed plant response rating: 0
Kochia [1]; Rate 62 g/ha
  Plant response rating, Kochia: 45
Kochia [1]; Rate 125 g/ha
  Plant response rating, Kochia: 0
Kochia [1]; [5]
  Plant response rating, Kochia: 0
Kochia [1]; [6]
  Kochia plant response rating: 0
deadnettle; [3]
  Plant response rating, Deadnettle: 30
deadnettle; Rate 250 g/ha
  Deadnettle plant response rating (0 to 100 scale): 60
deadnettle; [4]
  Plant response rating, Deadnettle: 100
Jointed goatgrass; Rate 62 g/ha
  Plant response rating, Jointed goatgra: 30
Jointed goatgrass; Rate 125 g/ha
  Plant response rating, Jointed goatgra: 0
Jointed goatgrass; [5]
  Plant response rating, Jointed goatgra: 60
Jointed goatgrass; [6]
  Jointed goatgra plant response rating: 0
Kochia [2]; [3]
  Plant response rating, Kochia: 0
Kochia [2]; Rate 250 g/ha
  Kochia plant response rating (0 to 100 scale): 10
Kochia [2]; [4]
  Plant response rating, Kochia: 100
Russian thistle; [3]
  Plant response rating, Russian thistle: 10
Russian thistle; Rate 250 g/ha
  Russian thistle plant response rating (0 to 100 scale): 0
Russian thistle; [4]
  Plant response rating, Russian thistle: 0
Field violet; [3]
  Plant response rating, Field violet: 20
Field violet; Rate 250 g/ha
  Field violet plant response rating (0 to 100 scale): 20
Field violet; [4]
  Plant response rating, Field violet: 40
Spring wheat; Rate 62 g/ha
  Plant response rating, Spring Wheat: 5
Spring wheat; Rate 125 g/ha
  Plant response rating, Spring Wheat: 0
Spring wheat; [5]
  Plant response rating, Spring Wheat: 40
Spring wheat; [6]
  Spring Wheat plant response rating: 0
Field bindweed; Rate 140 g/ha
  Plant response rating Field bindweed: 0
Field bindweed; Rate 280 g/ha
  Plant response rating Field bindweed: 0
Field bindweed; Rate 560 g/ha
  Plant response rating Field bindweed: 0
Field bindweed; Rate 1120 g/ha
  Plant response rating Field bindweed: 60
Large crabgrass; Rate 140 g/ha
  Plant response rating Large crabgrass: 0
Large crabgrass; Rate 280 g/ha
  Plant response rating Large crabgrass: 20
Large crabgrass; Rate 560 g/ha
  Plant response rating Large crabgrass: 70
Large crabgrass; Rate 1120 g/ha
  Plant response rating Large crabgrass: 85
cocklebur; Rate 140 g/ha
  Plant response rating, Cocklebur: 0
cocklebur; Rate 280 g/ha
  Plant response rating, Cocklebur: 0
cocklebur; Rate 560 g/ha
  Plant response rating, Cocklebur: 0
cocklebur; Rate 1120 g/ha
  Plant response rating, Cocklebur: 10
rape; [3]
  Plant response rating, Rape: 70
rape; Rate 250 g/ha
  Rape plant response rating (0 to 100 scale): 75
rape; [4]
  Plant response rating, Rape: 90
chickweed; Rate 62 g/ha
  Plant response rating, Chickweed: 60
chickweed; Rate 125 g/ha
  Plant response rating, Chickweed: 10
chickweed; [5]
  Plant response rating, Chickweed: 50
chickweed; [6]
  Chickweed plant response rating: 20
Littleseed canarygrass; [3]
  Plant response rating, LS canarygrass: 70
Littleseed canarygrass; Rate 250 g/ha
  LS canarygrass plant response rating (0 to 100 scale): 70
Littleseed canarygrass; [4]
  Plant response rating, LS canarygrass: 100
